Patent US9408842B2, “Substituted pyrano and furanoquinolines, their preparation and use as medicaments” (LABORATORIOS DEL DR. ESTEVE S.A., priority 2012, dated 2016)
Counter-ions that a name gives are not always drawn.

Target: T1, σ1-receptor (Cavia porcellus, UniProt Q60492)
T1 construct: Guinea pig brains were homogenized in 10 vols; (w/v) of Tris-HCl 50 mM 0.32 M sucrose, pH 7.4; from tissue; host or cells: guinea pig brain membranes
Test: binding assay for the σ1-receptor, [3H]-(+)-pentazocine, brain membranes
Conditions: guinea pig brain membranes; radioligand [3H]-(+)-pentazocine 5.0 nM; 150 min at 37° C.; nonspecific binding with 1 μM haloperidol
Experimental: Guinea pig brains were homogenized in 10 vols. (w/v) of Tris-HCl 50 mM 0.32 M sucrose, pH 7.4, with a Kinematica Polytron PT 3000 at 15000 r.p.m. for 30 s. The homogenate was centrifuged at 1000 g for 10 min at 4° C. and the supernatants collected and centrifuged again at 48000 g for 15 min at 4° C. The pellet was resuspended in 10 volumes of Tris-HCl buffer (50 mM, pH 7.4), incubated at 37° C. for 30 min, and centrifuged at 48000 g for 20 min at 4° C. Following this, the pellet was re-suspended in fresh Tris-HCl buffer (50 mM, pH 7.4) and stored on ice until use.
The radioligand used was [^3H]-(+)-pentazocine at 5.0 nM and the final volume was 200 μl. The incubation was initiated with the addition of 100 μl of membrane at a final tissue concentration of approximately 5 mg tissue net weight/mL and the incubation time was 150 m. at 37° C. After incubation, the membranes were collected onto pretreated glass fiber filterplate (MultiScreen-FC, Millipore), with polyethylenimine 0.1%. The filters were washed two times with 200 μl of washing buffer (50 mM Tris Cl, pH=7.4) and then 25 μl of Ecoscint H liquid scintillation cocktail were added. […] Nonspecific binding was determined with 1 μM haloperidol.

T1 sequence (Q60492 whole entry): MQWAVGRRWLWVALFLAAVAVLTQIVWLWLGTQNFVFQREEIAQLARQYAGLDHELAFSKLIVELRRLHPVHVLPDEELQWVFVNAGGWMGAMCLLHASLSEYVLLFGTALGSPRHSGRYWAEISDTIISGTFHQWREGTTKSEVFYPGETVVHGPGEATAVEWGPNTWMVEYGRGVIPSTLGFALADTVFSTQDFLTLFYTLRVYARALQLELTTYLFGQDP

SMILES | Ki
CC(C)CCOc1ccc2c(c1)[C@H]1OCCC[C@H]1[C@@H](C1CCOCC1)N2 [Example 114, (4aS,5R,10bS)-9-(isopentyloxy)-5-(tetrahydro-2H-pyran-4-yl)-3,4,4a,5,6,10b-hexahydro-2H-pyrano[3,2-c]quinoline] | 30 nM
CCCCCc1ccc2c(c1)[C@H]1OCC[C@H]1[C@@H](C1CCCCC1)N2 (racemic) [Example 84, (3aSR*,4RS*,9bSR*)-4-cyclohexyl-8-pentyl-2,3,3a,4,5,9b-hexahydrofuro[3,2-c]quinoline hydrochloride] | 244 nM
NCCCCOc1ccc2c(c1)[C@H]1OCCC[C@H]1[C@@H](C1CCCCC1)N2 (racemic) [Example 111, 4-((4aSR*,5RS*,10bSR*)-5-cyclohexyl-3,4,4a,5,6,10b-hexahydro-2H-pyrano[3,2-c]quinolin-9-yloxy)butan-1-amine hydrochloride] | 242 nM
c1cc2c(cc1OCCN1CCOCC1)[C@H]1OCCC[C@H]1[C@@H](C1CCCCC1)N2 (racemic) [Example 67, (4aSR*,5RS*,10bSR*)-5-cyclohexyl-9-(2-morpholinoethoxy)-3,4,4a,5,6,10b-hexahydro-2H-pyrano[3,2-c]quinoline] | 311 nM
COc1ccc2c(c1)[C@H]1OCCC[C@H]1[C@@H](C1CCN(CCc3ccccc3)CC1)N2 (racemic) [Example 108, (4aSR*,5RS*,10bSR*)-9-methoxy-5-(1-phenethylpiperidin-4-yl)-3,4,4a,5,6,10b-hexahydro-2H-pyrano[3,2-c]quinoline hydrochloride] | 279 nM
Clc1ccc(Oc2ccc3c(c2)[C@H]2OCC[C@H]2[C@@H](C2CCCCC2)N3)cc1 (racemic) [Example 86, (3aSR*,4RS*,9bSR*)-8-(4-chlorophenoxy)-4-cyclohexyl-2,3,3a,4,5,9b-hexahydrofuro[3,2-c]quinoline] | 78.2 nM
CC(C)CCOc1ccc2c(c1)[C@H]1OCCC[C@H]1[C@@H](C1CCCCC1)N2 (racemic) [Example 27, (4aSR*,5RS*,10bSR*)-5-cyclohexyl-9-(isopentyloxy)-3,4,4a,5,6,10b-hexahydro-2H-pyrano[3,2-c]quinoline hydrochloride] | 51.6 nM
Clc1ccc(Oc2ccc3c(c2)[C@H]2OCCC[C@H]2[C@@H](C2CCCCC2)N3)cc1 (racemic) [Example 55, (4aSR*,5RS*,10bSR*)-9-(4-chlorophenoxy)-5-cyclohexyl-3,4,4a,5,6,10b-hexahydro-2H-pyrano[3,2-c]quinoline hydrochloride] | 194 nM
CCCCCc1ccc2c(c1)[C@H]1OCC[C@H]1[C@@H](C1CCOCC1)N2 (racemic) [Example 85, (3aSR*,4RS*,9bSR*)-8-pentyl-4-(tetrahydro-2H-pyran-4-yl)-2,3,3a,4,5,9b-hexahydrofuro[3,2-c]quinoline hydrochloride] | 155 nM
CC(C)CCOc1ccc2c(c1)[C@H]1OCCC[C@H]1[C@@H](C1CCCC1)N2 (racemic) [Example 105, (4aSR*,5RS*,10bSR*)-5-cyclopentyl-9-(isopentyloxy)-3,4,4a,5,6,10b-hexahydro-2H-pyrano[3,2-c]quinoline hydrochloride] | 124 nM
CCCCOc1ccc2c(c1)[C@H]1OCCC[C@H]1[C@@H](C1CCCCC1)N2 (racemic) [Example 16, (4aSR*,5RS*,10bSR*)-9-butoxy-5-cyclohexyl-3,4,4a,5,6,10b-hexahydro-2H-pyrano[3,2-c]quinoline hydrochloride] | 122 nM
c1cc2c(cc1OCCN1CCOCC1)[C@H]1OCC[C@H]1[C@@H](C1CCCCC1)N2 (racemic) [Example 41, (3aSR*,4RS*,9bSR*)-4-cyclohexyl-8-(2-morpholinoethoxy)-2,3,3a,4,5,9b-hexahydrofuro[3,2-c]quinoline hydrochloride] | 131 nM
CC(C)CCOc1ccc2c(c1)[C@H]1OCC[C@H]1[C@@H](C1CCCCC1)N2 (racemic) [Example 32, (3aSR*,4RS*,9bSR*)-4-cyclohexyl-8-(isopentyloxy)-2,3,3a,4,5,9b-hexahydrofuro[3,2-c]quinoline hydrochloride] | 108 nM
CCCCCc1ccc2c(c1)[C@H]1OCCC[C@H]1[C@@H](C1CCCCC1)N2 (racemic) [Example 59, (4aSR*,5RS*,10bSR*)-5-cyclohexyl-9-pentyl-3,4,4a,5,6,10b-hexahydro-2H-pyrano[3,2-c]quinoline] | 132 nM
CC(C)CCOc1ccc2c(c1)[C@H]1OCCC[C@H]1[C@@H](C1CCOCC1)N2 (racemic) [Example 101, (4aSR*,5RS*,10bSR*)-9-(isopentyloxy)-5-(tetrahydro-2H-pyran-4-yl)-3,4,4a,5,6,10b-hexahydro-2H-pyrano[3,2-c]quinoline hydrochloride] | 84 nM
c1ccc(Oc2ccc3c(c2)[C@H]2OCCC[C@H]2[C@@H](C2CCSCC2)N3)cc1 (racemic) [Example 71, (4aSR*,5RS*,10bSR*)-9-phenoxy-5-(tetrahydro-2H-thiopyran-4-yl)-3,4,4a,5,6,10b-hexahydro-2H-pyrano[3,2-c]quinoline hydrochloride] | 349 nM
CC(C)CCOc1ccc2c(c1)[C@H]1OCCC[C@H]1[C@@H](C1CCNCC1)N2 (racemic) [Example 100, (4aSR*,5RS*,10bSR*)-9-(isopentyloxy)-5-(piperidin-4-yl)-3,4,4a,5,6,10b-hexahydro-2H-pyrano[3,2-c]quinoline hydrochloride] | 536 nM
Clc1ccc(Oc2ccc3c(c2)[C@H]2OCC[C@H]2[C@@H](C2CCCCC2)N3)cc1 (racemic) [Example 87, (3aSR*,4RS*,9bSR*)-8-(4-chlorophenoxy)-4-cyclohexyl-2,3,3a,4,5,9b-hexahydrofuro[3,2-c]quinoline hydrochloride] | 302 nM
NCCCOc1ccc2c(c1)[C@H]1OCC[C@H]1[C@@H](C1CCCCC1)N2 (racemic) [Example 106, 3-((3aSR*,4RS*,9bSR*)-4-cyclohexyl-2,3,3a,4,5,9b-hexahydrofuro[3,2-c]quinolin-8-yloxy)propan-1-amine hydrochloride] | 25.3 nM
c1cc2c(cc1N1CCOCC1)[C@H]1OCC[C@H]1[C@@H](C1CCCCC1)N2 (racemic) [Example 103, (3aSR*,4RS*,9bSR*)-4-cyclohexyl-8-morpholino-2,3,3a,4,5,9b-hexahydrofuro[3,2-c]quinoline hydrochloride] | 337 nM
CCN1CCC([C@H]2Nc3ccc(OCCC(C)C)cc3[C@H]3OCCC[C@H]32)CC1 (racemic) [Example 110, (4aSR*,5RS*,10bSR*)-5-(1-ethylpiperidin-4-yl)-9-(isopentyloxy)-3,4,4a,5,6,10b-hexahydro-2H-pyrano[3,2-c]quinoline hydrochloride] | 317 nM
CCCCCc1ccc2c(c1)[C@H]1OCCC[C@H]1[C@@H](C1CCOCC1)N2 (racemic) [Example 63, (4aSR*,5RS*,10bSR*)-9-pentyl-5-(tetrahydro-2H-pyran-4-yl)-3,4,4a,5,6,10b-hexahydro-2H-pyrano[3,2-c]quinoline hydrochloride] | 61.9 nM
COc1ccc2c(c1)[C@H]1OCCC[C@H]1[C@@H](C1CCN(Cc3ccc(Cl)cc3)CC1)N2 (racemic) [Example 109, (4aSR*,5RS*,10bSR*)-5-(1-(4-chlorobenzyl)piperidin-4-yl)-9-methoxy-3,4,4a,5,6,10b-hexahydro-2H-pyrano[3,2-c]quinoline hydrochloride] | 27.2 nM
